± gives the standard deviation of the averaged measurements.
Assays:
Settings in all cases: treatment time: 3 days
UT-SCC-24A = experiment: relative IC50 (midpoint of the fitted curve; maximal inhibition may be below 50%); higher = less potent
Method: (§1)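 HNSCC cell lines (500 cells/well, 384-well) were cultured on plastic, on top of (2D) or embedded (3D) in Matrigel or human leiomyoma matrix Myogel (500 ug/mL; Myogel 3D mixed with rat collagen I). Cells were treated for 3 days with 5 ten-fold concentrations of each drug, and viability was read by CellTiter-Glo. Viability was normalised to DMSO (0% inhibition) and 100 uM benzethonium chloride (100% inhibition) controls and fitted with the FIMM DSRT pipeline to give IC50 (nM), maximal % inhibition and the drug sensitivity score (DSS). Suffixes _1/_2/_3 on drug names are replicates.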

UT-SCC-106A = experiment: relative IC50 (midpoint of the fitted curve; maximal inhibition may be below 50%); higher = less potent
Outline: (§2)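 HPV-negative HNSCC cell lines were seeded at 500 cells/well in 384-well plates on plastic, on Matrigel- or Myogel-coated wells (500 µg/mL), or embedded in Matrigel or Myogel plus rat collagen I. Compounds were given at five 10-fold concentrations for 3 days, and viability was read by CellTiter-Glo 2.0 luminescence. Signals were normalised to vehicle (0.1% DMSO) and cell-killing control wells. Percent-inhibition dose–response curves were fitted in the FIMM pipeline to derive IC50, maximal inhibition and drug sensitivity score.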

UT-SCC-73 = experiment: as above
Outline: as §2

UT-SCC-44 = experiment: as above
Outline: as §2

UT-SCC-42A [1] = experiment: as above
Outline: as §2

UT-SCC-14 [2] = experiment: as above
Outline: as §2

UT-SCC-28 [3] = experiment: as above
Outline: as §2

UT-SCC-81 [4] = experiment: as above
Outline: as §2

UT-SCC-8 [5] = experiment: as above
Outline: as §2

UT-SCC-40 [6] = experiment: as above
Outline: as §2

UT-SCC-24B [7] = experiment: as above
Outline: as §2

UT-SCC-42B [8] = experiment: as above
Outline: as §2

UT-SCC-42A [9] = experiment: maximal % inhibition of viability relative to DMSO; higher = stronger effect
Method: as §1, with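 “DMSO” for “DMSO (0% inhibition)”, “and” for “and 100 uM”, “chloride” for “chloride (100% inhibition)”, “DSS.” for “the drug sensitivity score (DSS).”, “_1/_2/_3” for “_1/_2/_3 on drug names”, “replicates. Only inhibition-mode (IC50) fits are kept.” for “replicates.”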

UT-SCC-14 [10] = experiment: as above
Method: as §1, with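 “DMSO” for “DMSO (0% inhibition)”, “and” for “and 100 uM”, “chloride” for “chloride (100% inhibition)”, “DSS.” for “the drug sensitivity score (DSS).”, “_1/_2/_3” for “_1/_2/_3 on drug names”, “replicates. Only inhibition-mode (IC50) fits are kept.” for “replicates.”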

UT-SCC-28 [11] = experiment: as above
Method: as §1, with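 “DMSO” for “DMSO (0% inhibition)”, “and” for “and 100 uM”, “chloride” for “chloride (100% inhibition)”, “DSS.” for “the drug sensitivity score (DSS).”, “_1/_2/_3” for “_1/_2/_3 on drug names”, “replicates. Only inhibition-mode (IC50) fits are kept.” for “replicates.”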

UT-SCC-81 [12] = experiment: as above
Method: as §1, with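 “DMSO” for “DMSO (0% inhibition)”, “and” for “and 100 uM”, “chloride” for “chloride (100% inhibition)”, “DSS.” for “the drug sensitivity score (DSS).”, “_1/_2/_3” for “_1/_2/_3 on drug names”, “replicates. Only inhibition-mode (IC50) fits are kept.” for “replicates.”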

UT-SCC-8 [13] = experiment: as above
Method: as §1, with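 “DMSO” for “DMSO (0% inhibition)”, “and” for “and 100 uM”, “chloride” for “chloride (100% inhibition)”, “DSS.” for “the drug sensitivity score (DSS).”, “_1/_2/_3” for “_1/_2/_3 on drug names”, “replicates. Only inhibition-mode (IC50) fits are kept.” for “replicates.”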

UT-SCC-40 [14] = experiment: as above
Method: as §1, with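 “DMSO” for “DMSO (0% inhibition)”, “and” for “and 100 uM”, “chloride” for “chloride (100% inhibition)”, “DSS.” for “the drug sensitivity score (DSS).”, “_1/_2/_3” for “_1/_2/_3 on drug names”, “replicates. Only inhibition-mode (IC50) fits are kept.” for “replicates.”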

UT-SCC-24B [15] = experiment: as above
Method: as §1, with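 “DMSO” for “DMSO (0% inhibition)”, “and” for “and 100 uM”, “chloride” for “chloride (100% inhibition)”, “DSS.” for “the drug sensitivity score (DSS).”, “_1/_2/_3” for “_1/_2/_3 on drug names”, “replicates. Only inhibition-mode (IC50) fits are kept.” for “replicates.”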

UT-SCC-42B [16] = experiment: as above
Method: as §1, with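 “DMSO” for “DMSO (0% inhibition)”, “and” for “and 100 uM”, “chloride” for “chloride (100% inhibition)”, “DSS.” for “the drug sensitivity score (DSS).”, “_1/_2/_3” for “_1/_2/_3 on drug names”, “replicates. Only inhibition-mode (IC50) fits are kept.” for “replicates.”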

[17] = culture condition: embedded in Matrigel
[18] = culture condition: embedded in Myogel + collagen I
[19] = culture condition: on top of Matrigel
[20] = culture condition: on top of Myogel
[21] = culture condition: plastic 2D (no matrix)

## COc1ncc(-c2ccc3nccc(-c4ccnnc4)c3c2)cc1NS(=O)(=O)c1ccc(F)cc1F [Omipalisib]
UT-SCC-24A; [17]
  relative IC50: 4.17 nM
UT-SCC-24A; [18]
  relative IC50: 7 nM
UT-SCC-24A; [19]
  relative IC50: 5.02 nM
UT-SCC-24A; [20]
  relative IC50: 10.1 nM
UT-SCC-24A; [21]
  relative IC50: 5.44 nM
UT-SCC-106A; [17]
  relative IC50: 4.51 nM
UT-SCC-106A; [18]
  relative IC50: 10.1 nM
UT-SCC-106A; [19]
  relative IC50: 5.7 nM
UT-SCC-106A; [20]
  relative IC50: 15.6 nM
UT-SCC-106A; [21]
  relative IC50: 5.69 nM
UT-SCC-73; [17]
  relative IC50: 6.73 nM
UT-SCC-73; [19]
  relative IC50: 6.72 nM
UT-SCC-73; [20]
  relative IC50: 9.27 nM
UT-SCC-73; [21]
  relative IC50: 8.51 nM
UT-SCC-44; [18]
  relative IC50: 10.4 nM
UT-SCC-44; [19]
  relative IC50: 5.9 nM
UT-SCC-44; [20]
  relative IC50: 9.17 nM
UT-SCC-44; [21]
  relative IC50: 14.4 nM
UT-SCC-42A [1]; [17]
  relative IC50: 15.6 nM
UT-SCC-42A [1]; [18]
  relative IC50: 16.6 nM
UT-SCC-42A [1]; [19]
  relative IC50: 13.2 nM
UT-SCC-42A [1]; [20]
  relative IC50: 16.4 nM
UT-SCC-42A [1]; [21]
  relative IC50: 11.5 nM
UT-SCC-14 [2]; [17]
  relative IC50: 5.67 nM
UT-SCC-14 [2]; [19]
  relative IC50: 8.29 nM
UT-SCC-14 [2]; [20]
  relative IC50: 11.2 nM
UT-SCC-14 [2]; [21]
  relative IC50: 6.77 nM
UT-SCC-28 [3]; [17]
  relative IC50: 2.99 nM
UT-SCC-28 [3]; [18]
  relative IC50: 12.8 nM
UT-SCC-28 [3]; [19]
  relative IC50: 5.19 nM
UT-SCC-28 [3]; [21]
  relative IC50: 5.26 nM
UT-SCC-81 [4]; [17]
  relative IC50: 4 nM
UT-SCC-81 [4]; [18]
  relative IC50: 8.83 nM
UT-SCC-81 [4]; [19]
  relative IC50: 5.22 nM
UT-SCC-81 [4]; [20]
  relative IC50: 9.49 nM
UT-SCC-81 [4]; [21]
  relative IC50: 8.77 nM
UT-SCC-8 [5]; [17]
  relative IC50: 5.05 nM
UT-SCC-8 [5]; [19]
  relative IC50: 7.5 nM
UT-SCC-8 [5]; [20]
  relative IC50: 8.01 nM
UT-SCC-8 [5]; [21]
  relative IC50: 6.97 nM
UT-SCC-40 [6]; [17]
  relative IC50: 5.31 nM
UT-SCC-40 [6]; [18]
  relative IC50: 9.86 nM
UT-SCC-40 [6]; [19]
  relative IC50: 5.3 nM
UT-SCC-40 [6]; [20]
  relative IC50: 12.9 nM
UT-SCC-40 [6]; [21]
  relative IC50: 11.7 nM
UT-SCC-24B [7]; [17]
  relative IC50: 11 nM
UT-SCC-24B [7]; [18]
  relative IC50: 9.4 nM
UT-SCC-24B [7]; [19]
  relative IC50: 11.6 nM
UT-SCC-24B [7]; [20]
  relative IC50: 15.8 nM
UT-SCC-24B [7]; [21]
  relative IC50: 12.8 nM
UT-SCC-42B [8]; [17]
  relative IC50: 6.88 nM
UT-SCC-42B [8]; [19]
  relative IC50: 19.3 nM
UT-SCC-42B [8]; [20]
  relative IC50: 36.6 nM
UT-SCC-42B [8]; [21]
  relative IC50: 31.4 nM
UT-SCC-42A [9]; [17]
  maximal % inhibition of viability: 97.27 ± 0.59%
UT-SCC-42A [9]; [18]
  maximal % inhibition of viability: 87.8 ± 1.7%
UT-SCC-42A [9]; [19]
  maximal % inhibition of viability: 96.13 ± 0.86%
UT-SCC-42A [9]; [20]
  maximal % inhibition of viability: 90.83 ± 0.76%
UT-SCC-42A [9]; [21]
  maximal % inhibition of viability: 92.7 ± 1.3%
UT-SCC-14 [10]; [17]
  maximal % inhibition of viability: 94.8 ± 1.1%
UT-SCC-14 [10]; [18]
  maximal % inhibition of viability: 92.2 ± 1.3%
UT-SCC-14 [10]; [19]
  maximal % inhibition of viability: 93.9 ± 1.9%
UT-SCC-14 [10]; [20]
  maximal % inhibition of viability: 90 ± 2.3%
UT-SCC-14 [10]; [21]
  maximal % inhibition of viability: 92.47 ± 0.81%
UT-SCC-28 [11]; [17]
  maximal % inhibition of viability: 60.7 ± 5.8%
UT-SCC-28 [11]; [18]
  maximal % inhibition of viability: 83 ± 5.5%
UT-SCC-28 [11]; [19]
  maximal % inhibition of viability: 64.3 ± 4.8%
UT-SCC-28 [11]; [21]
  maximal % inhibition of viability: 60.8 ± 3.6%
UT-SCC-81 [12]; [17]
  maximal % inhibition of viability: 97.77 ± 0.51%
UT-SCC-81 [12]; [18]
  maximal % inhibition of viability: 89.1 ± 0.91%
UT-SCC-81 [12]; [19]
  maximal % inhibition of viability: 96.83 ± 0.76%
UT-SCC-81 [12]; [20]
  maximal % inhibition of viability: 90.3 ± 1.4%
UT-SCC-81 [12]; [21]
  maximal % inhibition of viability: 91.9 ± 2.2%
UT-SCC-8 [13]; [17]
  maximal % inhibition of viability: 99.57 ± 0.25%
UT-SCC-8 [13]; [18]
  maximal % inhibition of viability: 98.2 ± 0.56%
UT-SCC-8 [13]; [19]
  maximal % inhibition of viability: 98.5 ± 1.1%
UT-SCC-8 [13]; [20]
  maximal % inhibition of viability: 96.8 ± 1%
UT-SCC-8 [13]; [21]
  maximal % inhibition of viability: 97.87 ± 0.61%
UT-SCC-40 [14]; [17]
  maximal % inhibition of viability: 98.67 ± 0.4%
UT-SCC-40 [14]; [18]
  maximal % inhibition of viability: 89.9 ± 0.76%
UT-SCC-40 [14]; [19]
  maximal % inhibition of viability: 96.4 ± 1.7%
UT-SCC-40 [14]; [20]
  maximal % inhibition of viability: 85.8 ± 1.6%
UT-SCC-40 [14]; [21]
  maximal % inhibition of viability: 88.4 ± 2%
UT-SCC-24B [15]; [17]
  maximal % inhibition of viability: 95.6 ± 0.79%
UT-SCC-24B [15]; [18]
  maximal % inhibition of viability: 96.6 ± 1.4%
UT-SCC-24B [15]; [19]
  maximal % inhibition of viability: 94.8 ± 1.3%
UT-SCC-24B [15]; [20]
  maximal % inhibition of viability: 92 ± 1.2%
UT-SCC-24B [15]; [21]
  maximal % inhibition of viability: 96.27 ± 0.55%
UT-SCC-42B [16]; [17]
  maximal % inhibition of viability: 96.3 ± 0.7%
UT-SCC-42B [16]; [19]
  maximal % inhibition of viability: 91.1 ± 1.4%
UT-SCC-42B [16]; [20]
  maximal % inhibition of viability: 84 ± 1.2%
UT-SCC-42B [16]; [21]
  maximal % inhibition of viability: 86.7 ± 1.1%

From the supplement of paper PMC7017272
